# Where two headings read alike, the source gives them in different places.
# Key:
# [1] = Multiple dose tolerability and pharmacokinetic trials, Japan and Ex-Japan; type: in vivo, Japanese (Japan) and European (Ex-Japan) subjects; settings: Japanese male subjects, 400 mg daily for seven days, six subjects
# Description: (§1) The Ex-Japan trials included (i) a single dose tolerability trial, and (ii) a multiple dose tolerability trial, and (iii) a food effect study.
# (§2) Both single dose and multiple dose tolerability trials were conducted in Japan utilizing healthy male Japanese subjects. […] Six subjects who received the 100 mg dose also participated in the food effect treatment arm of the single dose tolerability trial.
# No formal statistical analyses were performed and the actual derived data is presented for comparison purposes only.
# A multiple-dose safety and pharmacokinetic study among Japanese subjects was conducted in Japan. This was a single-blind, randomized, placebo-controlled study. […] Serial blood and urine samples were collected throughout the study for measurement of pharmacokinetic, renal, and hormonal parameters after a single dose on Day 1 and after seven days of dosing.
# [2] = tested on: saline-loaded adrenalectomized rats treated with aldosterone; experiment: Subcutaneous vs. oral administration: urinary Na/K in saline-loaded adrenalectomized rats treated with aldosterone; type: in vivo; settings: antagonizing aldosterone-mediated renal effects
# Description: Urinary sodium, potassium and water excretion were measured. The results are expressed as the ratio of excreted urinary sodium to potassium (Na/K) ± SEM.
# [3] = 96 hours postdose; other tissues below the limit of detection; 20 mg/kg
# [4] = Form H content of dried solids by X-ray powder diffraction (XPRD); type: physicochemical; settings: for Estimated Weight Percent of Form H / Form H Peak Area 12° Two Theta Peak: dried solids from methyl ethyl ketone crystallization
# Description: The weight percent of the diepoxide or 11,12-epoxide in each sample is given in Tables C-6A and C-6B, respectively. A micro-flea magnetic stirrer was added to each scintillation vial along with 1 mL of methyl ethyl ketone. The vials were loosely capped and the solid dissolved by heating to reflux on a hot plate with magnetic stirring. Once the solids were dissolved, the solutions were allowed to cool to room temperature on the hot plate. Magnetic stirring was maintained during the cooling period. After the solutions reached room temperature, the solids were collected by vacuum filtration and immediately analyzed by X-ray powder diffraction (XPRD). The solids were then placed in a 100°C oven and dried for one hour at ambient pressure. The dried solids were analyzed by XPRD for Form H content by monitoring the area of the Form H diffraction peak at about 12.1 degrees two theta. All XPRD diffraction patterns were recorded using an Inel Multipurpose Diffractometer. Table C-6A
# The peak intensities have been normalized for ease of comparison. No Form H was detected for the dried samples corresponding to the methyl ethyl ketone crystallizations performed at doping levels of 0 and 1%. Form H was detected in the dried samples corresponding to the methyl ethyl ketone crystallizations performed at doping levels of 3 and 5%. The area for the Form H diffraction peak at about 12.1 degrees two theta and the estimated Form H content for each sample are given in Table C-6C below. Table C-6C
# The peak intensities have been normalized for ease of comparison. No Form H was detected for the dried samples corresponding to the methyl ethyl ketone crystallizations performed at doping levels of 0, 1% and 5%. Form H was detected in the dried samples corresponding to the methyl ethyl ketone crystallization performed at a doping level of 10%. The area for the Form H diffraction peak at 12.1 degrees two theta and estimated Form H content for each sample are given in Table C-6D. Table C-6D
# Table C-7B reports the weight fraction of Form H measured in materials dried using either a fluid bed (LAB-LINE/P.R.L. Hi-Speed Fluid Bed Dryer, Lab-Line Instruments, Inc.) or a vacuum oven (Baxter Scientific Products Vacuum Drying Oven, Model DP-32). […] Table C-7B
# [5] = Single dose tolerability and pharmacokinetic trials, Japan and Ex-Japan; type: in vivo, Japanese (Japan) and European (Ex-Japan) subjects; settings: for CL/F: single dose, least squares mean
# Description: A total of 76 European subjects and 38 Japanese subjects participated in the single and multiple dose tolerability and food effect trials. Three of the studies were Ex-Japan studies and included doses ranging from 10 mg to 1000 mg. The other two studies were conducted in Japan and included doses ranging from 50 mg to 600 mg.
# as §1, §2
# Combining single dose fasting pharmacokinetic data from all five studies, an analysis of variance with factors for country (Japan, Ex-Japan), study nested within country, and dose were performed on the dose-normalized Cmax and AUC values to assess the effect of country (population). Dose normalization was done to the lowest dose (10 mg for single dose, 100 mg for multiple dose). In the absence of intravenous data, the distribution volume (V/F) and clearance (CL/F) parameters are represented as the apparent values and are normalized to 70 kg of body weight. There were no statistically significant differences between the Japan and Ex-Japan trials in any of the pharmacokinetic parameters analyzed.
# No statistically significant differences were noted between the Japan and ex-Japan population for any of the derived parameters evaluated.
# Each panel consisted of six subjects who were given eplerenone and two subjects who were given placebo.
# [6] = 0% 11,12-epoxide in starting eplerenone mixture
# [7] = 0% diepoxide in starting eplerenone mixture
# [8] = 1% 11,12-epoxide in starting eplerenone mixture
# [9] = 1% diepoxide in starting eplerenone mixture
# [10] = 3% diepoxide in starting eplerenone mixture
# [11] = 5% 11,12-epoxide in starting eplerenone mixture
# [12] = 5% diepoxide in starting eplerenone mixture
# [13] = 10% 11,12-epoxide in starting eplerenone mixture
compound,measurement,setting,value
"COC(=O)[C@@H]1CC2=CC(=O)CC[C@]2(C)[C@@]23O[C@@H]2C[C@@]2(C)[C@@H](CC[C@@]24CCC(=O)O4)[C@H]13 [Eplerenone, Pregn-4-ene-7,21-dicarboxylic acid, 9,11-epoxy-17-hydroxy-3-oxo-, γ-lactone, methyl ester, (7α, 11α, 17β)-]",adverse events,[1],mild fatigue on Day 2
same,efficacy of subcutaneous injection vs oral administration,[2],better efficacy than oral administration
same,"concentrations of radioactivity in cecum, kidneys, large intestine and liver",[3],less than 0.024 µg equivalents/g
same,Weight Percent Form H (XPRD),"[4]; cooling rate (0) 1.5°C/min, endpoint (0) 25°C, 100.8% eplerenone seeded with Form H, analyzed by DSC",100 Weight Percent
same,Weight Percent Form H (XPRD),"[4]; cooling rate (0) 1.5°C/min, endpoint (0) 25°C, 100.8% eplerenone seeded with Form H, analyzed by XPRD",77 Weight Percent
same,Weight Percent Form H (XPRD),"[4]; cooling rate (+) 3°C/min, cooling endpoint (+) 45°C, impurity level (+) 89.3% purity starting material",29 Weight Percent
same,Weight Percent Form H (XPRD),"[4]; cooling rate (-) 0.1°C/min, cooling endpoint (+) 45°C, impurity level (+) 89.3% purity starting material",31 Weight Percent
same,Weight Percent Form H,"[4]; cooling rate High, end point High, impurity level High, drying: High Fluid Bed",25%
same,Weight Percent Form H,"[4]; cooling rate High, end point High, impurity level High, drying: Low Fluid Bed",4.7%
same,Weight Percent Form H,"[4]; cooling rate High, end point High, impurity level High, drying: Vacuum Oven",29%
same,Weight Percent Form H,"[4]; cooling rate Low, end point Low, impurity level Low, drying: Low Fluid Bed",5.5%
same,Estimated Weight Percent of Form H,[4]; [6],None Detected
same,Form H Peak Area 12° Two Theta Peak,[4]; [6],None Detected
same,Estimated Weight Percent of Form H,[4]; [7],None Detected
same,Form H Peak Area 12° Two Theta Peak,[4]; [7],None Detected
same,Estimated Weight Percent of Form H,[4]; [8],None Detected
same,Form H Peak Area 12° Two Theta Peak,[4]; [8],None Detected
same,Estimated Weight Percent of Form H,[4]; [9],None Detected
same,Form H Peak Area 12° Two Theta Peak,[4]; [9],None Detected
same,Estimated Weight Percent of Form H,[4]; [10],10%
same,Form H Peak Area 12° Two Theta Peak,[4]; [10],1168
same,Estimated Weight Percent of Form H,[4]; [11],None Detected
same,Form H Peak Area 12° Two Theta Peak,[4]; [11],None Detected
same,Estimated Weight Percent of Form H,[4]; [12],30%
same,Form H Peak Area 12° Two Theta Peak,[4]; [12],4175
same,Estimated Weight Percent of Form H,[4]; [13],10-15%
same,Form H Peak Area 12° Two Theta Peak,[4]; [13],1541
same,adverse events,"[5]; healthy Japanese male subjects, single doses 50-600 mg",no adverse events were reported
same,CL/F,"[5]; human, blood, po, Ex-Japan, read-out: CL/F (converted)",228 mL/min
same,CL/F,"[5]; human, blood, po, Japan, read-out: CL/F (converted)",230 mL/min
same,CL/F,[5]; Ex-Japan,14.44 L/hr/70 kg
same,CL/F,[5]; Japan,13.52 L/hr/70 kg

# Source: patent EP1289507B1, “USE OF AN ALDOSTERONE ANTAGONIST FOR THE TREATMENT OR PROPHYLAXIS OF ALDOSTERONE-MEDIATED PATHOGENIC EFFECTS” (priority 2000, dated 2001)
